PubChem BioAssay AID1982 (Sanford-Burnham Center for Chemical Genomics, 2009)
Activity calls are given as the source filed them. How the calls were made is not given here.

Key:
Test in all cases: kinase panel binding selectivity, selectivity assay, biochemical, KINOMEscan (AID 1982)
[1] = biological target: 3-phosphoinositide-dependent protein kinase 1 (Homo sapiens) (UniProt O15530); conditions: KINOMEscan 353-kinase binding panel, qPCR; PDPK1; at 10 µM; active compounds read low
[2] = biological target: BDNF/NT-3 growth factors receptor (Homo sapiens) (UniProt Q16620); conditions: KINOMEscan 353-kinase binding panel, qPCR; TRKB; at 10 µM; active compounds read low
Sequence of BDNF/NT-3 growth factors receptor (Homo sapiens) (Q16620 whole entry, looked up): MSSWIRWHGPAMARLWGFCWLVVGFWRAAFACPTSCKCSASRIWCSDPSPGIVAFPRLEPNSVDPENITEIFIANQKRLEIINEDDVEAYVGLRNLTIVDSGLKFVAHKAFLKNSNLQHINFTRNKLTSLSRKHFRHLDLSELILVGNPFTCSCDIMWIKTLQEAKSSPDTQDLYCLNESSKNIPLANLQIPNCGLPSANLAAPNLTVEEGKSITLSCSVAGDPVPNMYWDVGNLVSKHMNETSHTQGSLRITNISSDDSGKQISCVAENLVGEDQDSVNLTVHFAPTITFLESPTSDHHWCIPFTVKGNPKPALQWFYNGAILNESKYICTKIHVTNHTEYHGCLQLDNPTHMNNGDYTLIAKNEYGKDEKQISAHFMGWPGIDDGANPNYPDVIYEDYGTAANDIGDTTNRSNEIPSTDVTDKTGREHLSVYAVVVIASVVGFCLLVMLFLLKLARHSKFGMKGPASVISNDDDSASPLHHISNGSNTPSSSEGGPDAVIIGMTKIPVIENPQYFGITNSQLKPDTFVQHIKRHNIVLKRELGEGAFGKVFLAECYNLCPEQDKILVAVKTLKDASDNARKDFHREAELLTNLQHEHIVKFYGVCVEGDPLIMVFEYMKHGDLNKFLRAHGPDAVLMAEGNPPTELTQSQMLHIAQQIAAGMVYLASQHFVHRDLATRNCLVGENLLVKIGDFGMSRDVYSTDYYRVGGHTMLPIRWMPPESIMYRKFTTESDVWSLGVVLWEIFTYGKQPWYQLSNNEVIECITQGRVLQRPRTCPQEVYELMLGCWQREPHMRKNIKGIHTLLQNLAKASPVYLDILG

BMPR1A = conditions: KINOMEscan 353-kinase binding panel, qPCR, at 10 µM, active compounds read low
BRSK2 = conditions: KINOMEscan 353-kinase binding panel, qPCR, at 10 µM, active compounds read low
CSNK1E = conditions: KINOMEscan 353-kinase binding panel, qPCR, at 10 µM, active compounds read low
[3] = biological target: Calcium/calmodulin-dependent protein kinase type II subunit alpha (Homo sapiens) (UniProt Q9UQM7); conditions: KINOMEscan 353-kinase binding panel, qPCR; CAMK2A; at 10 µM; active compounds read low
Sequence of Calcium/calmodulin-dependent protein kinase type II subunit alpha (Homo sapiens) (Q9UQM7 whole entry, looked up): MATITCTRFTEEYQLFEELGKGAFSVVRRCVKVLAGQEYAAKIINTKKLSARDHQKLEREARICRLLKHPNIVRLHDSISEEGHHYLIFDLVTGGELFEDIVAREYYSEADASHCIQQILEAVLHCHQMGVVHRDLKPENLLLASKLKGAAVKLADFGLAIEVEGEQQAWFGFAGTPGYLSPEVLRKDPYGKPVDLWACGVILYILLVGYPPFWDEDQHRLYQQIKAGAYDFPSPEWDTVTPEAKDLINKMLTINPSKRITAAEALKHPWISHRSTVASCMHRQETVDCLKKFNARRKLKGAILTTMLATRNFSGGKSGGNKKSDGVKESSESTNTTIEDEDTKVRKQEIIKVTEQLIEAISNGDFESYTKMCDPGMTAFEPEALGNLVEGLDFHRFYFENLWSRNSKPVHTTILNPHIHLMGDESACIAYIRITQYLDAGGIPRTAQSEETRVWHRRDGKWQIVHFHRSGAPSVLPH

[4] = biological target: Cyclin-dependent kinase 7 (Homo sapiens) (UniProt P50613); conditions: KINOMEscan 353-kinase binding panel, qPCR; CDK7; at 10 µM; active compounds read low
DLK = conditions: KINOMEscan 353-kinase binding panel, qPCR, at 10 µM, active compounds read low
[5] = biological target: Death-associated protein kinase 3 (Homo sapiens) (UniProt O43293); conditions: KINOMEscan 353-kinase binding panel, qPCR; DAPK3; at 10 µM; active compounds read low
Sequence of Death-associated protein kinase 3 (Homo sapiens) (O43293 whole entry, looked up): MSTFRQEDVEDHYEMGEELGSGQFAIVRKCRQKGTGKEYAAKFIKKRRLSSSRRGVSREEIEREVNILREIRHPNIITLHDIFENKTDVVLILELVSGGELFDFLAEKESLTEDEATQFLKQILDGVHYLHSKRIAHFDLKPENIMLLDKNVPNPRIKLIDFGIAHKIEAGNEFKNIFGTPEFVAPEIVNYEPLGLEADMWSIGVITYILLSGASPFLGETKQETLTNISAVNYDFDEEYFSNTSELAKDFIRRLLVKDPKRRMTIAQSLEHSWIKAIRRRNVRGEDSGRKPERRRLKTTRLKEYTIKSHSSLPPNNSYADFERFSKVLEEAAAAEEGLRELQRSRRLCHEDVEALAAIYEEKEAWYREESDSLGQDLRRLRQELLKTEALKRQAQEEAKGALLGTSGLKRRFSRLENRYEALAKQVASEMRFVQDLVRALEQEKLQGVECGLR

[6] = biological target: Dual specificity mitogen-activated protein kinase kinase 1 (Homo sapiens) (UniProt Q02750); conditions: KINOMEscan 353-kinase binding panel, qPCR; MEK1; at 10 µM; active compounds read low
[7] = biological target: Dual specificity protein kinase CLK4 (Homo sapiens) (UniProt Q9HAZ1); conditions: KINOMEscan 353-kinase binding panel, qPCR, at 10 µM, active compounds read low
Sequence of Dual specificity protein kinase CLK4 (Homo sapiens) (Q9HAZ1 whole entry, looked up): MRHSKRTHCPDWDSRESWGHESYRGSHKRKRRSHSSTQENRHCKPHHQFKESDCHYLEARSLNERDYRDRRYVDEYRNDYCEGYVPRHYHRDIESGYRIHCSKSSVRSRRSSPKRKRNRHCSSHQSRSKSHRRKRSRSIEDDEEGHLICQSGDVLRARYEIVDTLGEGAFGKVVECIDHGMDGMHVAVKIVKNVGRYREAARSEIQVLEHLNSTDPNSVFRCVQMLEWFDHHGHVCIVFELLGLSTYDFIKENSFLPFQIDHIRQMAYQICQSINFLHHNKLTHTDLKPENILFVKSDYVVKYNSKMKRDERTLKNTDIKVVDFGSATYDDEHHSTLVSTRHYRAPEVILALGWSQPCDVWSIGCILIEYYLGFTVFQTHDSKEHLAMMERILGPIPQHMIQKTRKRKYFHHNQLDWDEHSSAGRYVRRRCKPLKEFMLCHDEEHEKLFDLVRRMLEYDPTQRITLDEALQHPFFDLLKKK

EPHA5 = conditions: KINOMEscan 353-kinase binding panel, qPCR, at 10 µM, active compounds read low
ERK8 = conditions: KINOMEscan 353-kinase binding panel, qPCR, at 10 µM, active compounds read low
[8] = biological target: Fibroblast growth factor receptor 1 (Homo sapiens) (UniProt P11362); conditions: KINOMEscan 353-kinase binding panel, qPCR; FGFR1; at 10 µM; active compounds read low
IRAK3 = conditions: KINOMEscan 353-kinase binding panel, qPCR, at 10 µM, active compounds read low
[9] = biological target: Inhibitor of nuclear factor kappa-B kinase subunit beta (Homo sapiens) (UniProt O14920); conditions: KINOMEscan 353-kinase binding panel, qPCR; IKK-beta; at 10 µM; active compounds read low
MLK3 = conditions: KINOMEscan 353-kinase binding panel, qPCR, at 10 µM, active compounds read low
[10] = biological target: Mitogen-activated protein kinase 1 (Homo sapiens) (UniProt P28482); conditions: KINOMEscan 353-kinase binding panel, qPCR; ERK2; at 10 µM; active compounds read low
NEK6 = conditions: KINOMEscan 353-kinase binding panel, qPCR, at 10 µM, active compounds read low
PFTAIRE2 = conditions: KINOMEscan 353-kinase binding panel, qPCR, at 10 µM, active compounds read low
PRKCH = conditions: KINOMEscan 353-kinase binding panel, qPCR, at 10 µM, active compounds read low
PRKR = conditions: KINOMEscan 353-kinase binding panel, qPCR, at 10 µM, active compounds read low
[11] = biological target: Protein-tyrosine kinase 2-beta (Homo sapiens) (UniProt Q14289); conditions: KINOMEscan 353-kinase binding panel, qPCR; PTK2B; at 10 µM; active compounds read low
[12] = biological target: Proto-oncogene tyrosine-protein kinase receptor Ret (Homo sapiens) (UniProt P07949); conditions: KINOMEscan 353-kinase binding panel, qPCR, at 10 µM, active compounds read low
Sequence of Proto-oncogene tyrosine-protein kinase receptor Ret (Homo sapiens) (P07949 whole entry, looked up): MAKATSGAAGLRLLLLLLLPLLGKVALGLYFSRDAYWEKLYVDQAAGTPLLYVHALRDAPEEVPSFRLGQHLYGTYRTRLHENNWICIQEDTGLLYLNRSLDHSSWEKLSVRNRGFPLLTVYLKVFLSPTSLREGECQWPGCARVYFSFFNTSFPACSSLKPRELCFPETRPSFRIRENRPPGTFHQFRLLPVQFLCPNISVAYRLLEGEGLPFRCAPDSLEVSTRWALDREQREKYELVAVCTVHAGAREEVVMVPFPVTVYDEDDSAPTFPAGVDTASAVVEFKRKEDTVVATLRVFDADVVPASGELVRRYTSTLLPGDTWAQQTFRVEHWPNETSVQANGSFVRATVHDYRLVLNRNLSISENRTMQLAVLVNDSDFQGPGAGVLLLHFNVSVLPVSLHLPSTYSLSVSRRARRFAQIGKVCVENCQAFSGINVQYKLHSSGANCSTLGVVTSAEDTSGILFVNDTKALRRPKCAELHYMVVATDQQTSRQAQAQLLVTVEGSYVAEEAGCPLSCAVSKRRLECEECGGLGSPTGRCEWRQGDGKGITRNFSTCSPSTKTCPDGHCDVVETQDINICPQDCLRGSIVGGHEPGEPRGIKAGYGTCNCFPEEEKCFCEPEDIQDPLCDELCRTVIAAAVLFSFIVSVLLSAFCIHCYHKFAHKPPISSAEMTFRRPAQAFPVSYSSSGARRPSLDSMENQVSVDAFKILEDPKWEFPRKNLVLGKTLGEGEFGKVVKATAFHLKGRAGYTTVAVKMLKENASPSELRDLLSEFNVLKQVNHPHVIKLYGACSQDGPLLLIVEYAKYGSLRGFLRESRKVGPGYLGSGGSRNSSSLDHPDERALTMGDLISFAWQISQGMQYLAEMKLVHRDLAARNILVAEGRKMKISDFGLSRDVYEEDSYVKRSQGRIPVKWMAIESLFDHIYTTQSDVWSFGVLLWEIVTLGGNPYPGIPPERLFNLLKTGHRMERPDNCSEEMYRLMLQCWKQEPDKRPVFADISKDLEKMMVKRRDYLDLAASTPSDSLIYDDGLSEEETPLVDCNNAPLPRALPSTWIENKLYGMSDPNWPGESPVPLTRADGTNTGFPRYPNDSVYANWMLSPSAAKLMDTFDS

RIOK1 = conditions: KINOMEscan 353-kinase binding panel, qPCR, at 10 µM, active compounds read low
[13] = biological target: Serine/threonine-protein kinase 33 (Homo sapiens) (UniProt Q9BYT3); conditions: KINOMEscan 353-kinase binding panel, qPCR; STK33; at 10 µM; active compounds read low
[14] = biological target: Serine/threonine-protein kinase D2 (Homo sapiens) (UniProt Q9BZL6); conditions: KINOMEscan 353-kinase binding panel, qPCR; PRKD2; at 10 µM; active compounds read low
[15] = biological target: Serine/threonine-protein kinase PAK 1 (Homo sapiens) (UniProt Q13153); conditions: KINOMEscan 353-kinase binding panel, qPCR; PAK1; at 10 µM; active compounds read low
TAOK3 = conditions: KINOMEscan 353-kinase binding panel, qPCR, at 10 µM, active compounds read low
TGFBR2 = conditions: KINOMEscan 353-kinase binding panel, qPCR, at 10 µM, active compounds read low
[16] = biological target: Tyrosine-protein kinase HCK (Homo sapiens) (UniProt P08631); conditions: KINOMEscan 353-kinase binding panel, qPCR, at 10 µM, active compounds read low
Sequence of Tyrosine-protein kinase HCK (Homo sapiens) (P08631 whole entry, looked up): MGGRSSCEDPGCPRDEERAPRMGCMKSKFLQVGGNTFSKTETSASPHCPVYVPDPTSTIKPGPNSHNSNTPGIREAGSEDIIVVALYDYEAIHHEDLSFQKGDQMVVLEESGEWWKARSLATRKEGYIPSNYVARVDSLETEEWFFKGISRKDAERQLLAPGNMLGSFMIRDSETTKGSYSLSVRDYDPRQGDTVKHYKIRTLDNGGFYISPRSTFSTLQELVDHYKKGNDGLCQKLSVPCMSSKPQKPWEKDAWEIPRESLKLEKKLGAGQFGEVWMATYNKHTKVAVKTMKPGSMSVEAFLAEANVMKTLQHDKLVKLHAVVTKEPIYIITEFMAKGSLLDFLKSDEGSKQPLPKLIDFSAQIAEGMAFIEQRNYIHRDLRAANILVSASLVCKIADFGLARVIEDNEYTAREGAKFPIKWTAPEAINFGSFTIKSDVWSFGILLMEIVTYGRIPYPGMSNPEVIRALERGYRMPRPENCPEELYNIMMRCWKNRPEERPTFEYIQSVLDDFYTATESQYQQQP

[17] = biological target: Tyrosine-protein kinase Lyn (Homo sapiens) (UniProt P07948); conditions: KINOMEscan 353-kinase binding panel, qPCR, at 10 µM, active compounds read low
Sequence of Tyrosine-protein kinase Lyn (Homo sapiens) (P07948 whole entry, looked up): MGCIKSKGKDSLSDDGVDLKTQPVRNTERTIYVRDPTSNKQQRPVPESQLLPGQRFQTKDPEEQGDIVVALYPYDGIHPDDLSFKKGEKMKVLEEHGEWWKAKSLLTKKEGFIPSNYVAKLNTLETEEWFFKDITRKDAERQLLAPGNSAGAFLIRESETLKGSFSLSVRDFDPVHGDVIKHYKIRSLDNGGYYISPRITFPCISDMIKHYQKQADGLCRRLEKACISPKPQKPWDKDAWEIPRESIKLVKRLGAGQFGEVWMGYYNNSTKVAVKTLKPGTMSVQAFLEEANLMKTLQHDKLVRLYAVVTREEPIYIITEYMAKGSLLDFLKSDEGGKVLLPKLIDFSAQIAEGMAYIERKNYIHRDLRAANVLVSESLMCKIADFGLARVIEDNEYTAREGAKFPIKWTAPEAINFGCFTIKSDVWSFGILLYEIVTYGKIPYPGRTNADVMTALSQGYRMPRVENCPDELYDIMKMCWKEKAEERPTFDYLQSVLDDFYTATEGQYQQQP

[18] = biological target: Wee1-like protein kinase (Homo sapiens) (UniProt P30291); conditions: KINOMEscan 353-kinase binding panel, qPCR, at 10 µM, active compounds read low
Sequence of Wee1-like protein kinase (Homo sapiens) (P30291 whole entry, looked up): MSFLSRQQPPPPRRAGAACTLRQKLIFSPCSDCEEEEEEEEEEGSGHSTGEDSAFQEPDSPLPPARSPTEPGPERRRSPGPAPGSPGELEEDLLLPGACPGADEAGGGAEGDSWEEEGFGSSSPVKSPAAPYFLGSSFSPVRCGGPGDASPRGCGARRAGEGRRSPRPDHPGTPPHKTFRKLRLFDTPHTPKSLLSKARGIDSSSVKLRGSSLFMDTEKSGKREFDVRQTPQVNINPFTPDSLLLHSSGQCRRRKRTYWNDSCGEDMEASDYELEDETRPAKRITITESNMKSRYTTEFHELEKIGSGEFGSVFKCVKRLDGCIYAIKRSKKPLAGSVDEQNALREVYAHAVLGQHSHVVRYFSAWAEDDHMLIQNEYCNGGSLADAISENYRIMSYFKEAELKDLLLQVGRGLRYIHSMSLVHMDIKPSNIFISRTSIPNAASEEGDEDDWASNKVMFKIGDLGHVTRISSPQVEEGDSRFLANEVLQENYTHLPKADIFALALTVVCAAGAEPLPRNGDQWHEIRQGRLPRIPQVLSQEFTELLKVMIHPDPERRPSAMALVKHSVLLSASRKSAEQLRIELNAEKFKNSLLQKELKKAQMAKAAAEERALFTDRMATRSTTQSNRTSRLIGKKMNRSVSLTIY

Measured: percent of control binding

Cc1cc2nc(NCCCO)n(CC(=O)c3cc(C(C)(C)C)c(O)c(C(C)(C)C)c3)c2cc1C
inactive: [1] 95% | [2] 100% | BMPR1A 97% | BRSK2 100% | CSNK1E 96% | [3] 85% | [4] 64% | DLK 82% | [5] 100% | [6] 75% | [7] 100% | EPHA5 87% | ERK8 100% | [8] 100% | IRAK3 100% | [9] 78% | MLK3 99% | [10] 89% | NEK6 93% | PFTAIRE2 53% | PRKCH 100% | PRKR 98% | [11] 100% | [12] 97% | [12]; RET(M918T) 100% | [12]; RET(V804L) 100% | [12]; RET(V804M) 99% | RIOK1 100% | [13] 98% | [14] 91% | [15] 67% | TAOK3 99% | TGFBR2 100% | [16] 93% | [17] 88% | [18] 90%
